In patent publication US20010010827A1, “Method and composition for treatment of headache using magnesium” (priority 1991, published 2001):
Where two headings read alike, the source gives them in different places.

Tests used:
[1] = Oral glucose loading: ionized, total and intracellular free magnesium; assay type: in vivo, human; details: oral glucose 100 gm
Protocol: Ionized magnesium, serum total magnesium, and plasma renin activity (PRA) in fasting normotensive (NT) (n=20), essential hypertensive (n=28) subjects was monitored before, and 60, 90, 120 and 180 minutes after oral glucose loading (100 gm). Results were compared to intracellular free magnesium values obtained at the same time intervals as measured using ^31P-NMR spectroscopy.

[2] = tested on: chronic migrainous headache; experiment: Therapies tried in patient #27 for two months before the MgSO4 infusion; assay type: in vivo, human; details: acetaminophen 1000 mg or ibuprofen 400 mg four times/day, nabumetone 1000 mg/day for two weeks, cyproheptadine 4 mg nightly for two weeks
Protocol: Long-term results in patients with intermittent migraine attacks is difficult to gauge because of the variable frequency of migraines in these patients. Responses in patients with chronic headaches also varied. […] Various therapists (i.e., acetaminophen—1000 mg or ibuprofen—400 mg-four times/day; nabumetone— 1000 mg/day for two weeks; cyproheptadine—4 mg nightly for two weeks; physical exercise) were tried in this patient for two months prior to the infusion with no relief.

[3] = tested on: headache (migraine, cluster, chronic migrainous, chronic tension-type)
Source text: Forty consecutive patients who presented to the headache clinic with a moderate or severe headache of any type (4 or higher on a verbal 1 to 10 scale) were enrolled in this study after an informed consent. […] Patients with renal, cardiac, diabetic or other medical problems were excluded. The international Headache Society classification was used to diagnose all patients.^23 Age-matched healthy volunteers served as control subjects.
Immediately prior to the magnesium infusion a blood sample of serum IMg^2+, total magnesium (TMg) and ionized calcium (ICa^2+) was drawn under anaerobic conditions. The laboratory personnel (B.T.A., B.M.A.) were blinded as the blood samples were not accompanied by any clinical information, while the clinician administering the infusion (A.M.) received test results several days after the completion of the evaluation. Serum levels of IMg^2+ and ICa^2+ were measured using ion-selective electrodes with a NOVA Biomedical Stat Profile 8 Analyzer.^16-18 The lower limit of normal for IMg^2+ levels in this study was 0.55/mmol/L. The normal range for the ICa^2+/IMg^2+ ratio is 1.92-2.08.
Headache intensity was measured on a verbal 1 to 10 scale prior to and 15 minutes after the infusion. A greater than 50% reduction of pain intensity was considered a positive response. The recurrence or worsening of a headache within the following 24 was determined in a telephone interview on the following day. The clinical response to the IMg^2+ levels was correlated. The correlation was considered to be positive if patients with a normal IMg^2+ level (≧0.55 mmol/L) had no relief or less than 24 hrs of relief. In patients with low IMg^2+ levels (<0.55 mmol/L), a correlation was considered positive only if relief lasted for more than 24 hrs.
Mean values±S.E.M. were calculated and compared for statistical significance by a Student's t-test, ANOVA with Scheffe's contrast test, analysis of co-variance for age, and linear regression analysis, where appropriate. Chi-Square tests were also utilized where appropriate. A p-value of less than 0.05 was considered significant.

[4] = of the 40 patients given IV MgSO4

O=C[C@H](O)[C@@H](O)[C@H](O)[C@H](O)CO [glucose]
total magnesium values after glucose loading [1]: did not differ | ionized Mg2+ levels after oral glucose loading ([1]; elevated from 0.60±0.02, ion selective electrode, p<0.01): 0.64 ± 0.02 mM | intracellular Mg after oral glucose loading ([1]; lowered from 219± 12, 31P-NMR, p<0.01): 193 ± 13 µM

COc1ccc2cc(CCC(C)=O)ccc2c1 [nabumetone]
relief of headache [2]: no relief

CC(=O)Nc1ccc(O)cc1 [acetaminophen]
relief of headache [2]: no relief

CC(C)Cc1ccc(C(C)C(=O)O)cc1 (centres unmarked) [ibuprofen]
relief of headache [2]: no relief

O=S(=O)([O-])[O-].[Mg+2] [MgSO4, magnesium sulfate]
other side effects ([3]; 40 patients, IV infusion): No other side effects were noted | side effect during the IV infusion ([3]; almost all patients): flushed feeling | duration of relief ([3]; cluster headache, repeat infusions of 1 to 3 gram each): approximately 48 hours | Return Within 24 hr ([3]; individual chronic tension headache patients, recurrence or worsening of headache within 24 hr): N | Response ([3]; individual cluster headache patients, 1 g MgSO4 IV over 5 min, positive = greater than 50% reduction of pain intensity 15 min after infusion): Y | onset of improvement of headache ([3]; most patients): began to improve before the end of infusion | duration of relief ([3]; most patients whose headache returned within 24 hours): 1 to 2 h | number of patients with persistent relief of headache beyond 24 hours ([3]; of the 32 initial responders): 18 patients | number of patients with at least a 50% initial reduction of pain intensity [3, 4]: 32 patients | patients with at least a 50% initial reduction of pain intensity [3, 4]: 80% | duration of relief ([3]; patient #17, chronic cluster headache, after the initial and each of three subsequent infusions): 28 h | persistence of response ([3]; patient #27 (youngest patient), single infusion): positive response to Mg that persists five months later | duration of relief ([3]; patient #28, chronic migrainous headache): 24 h | outcome of cluster episode ([3]; patients #18 and #19, episodic clusters, single infusion): aborted the entire cluster episode | time to return of headaches ([3]; patients #24 and #25, episodic clusters): ≤ 24 h | duration of relief ([3]; the other four cluster headache patients): two-seven | patients with complete elimination of pain ([3]; within 5 min of infusion): 80%
